Source: patent US12252457B2, “Compositions and methods for reducing tactile dysfunction, anxiety, and social impairment” (President and Fellows of Harvard College, priority 2018, dated 2025)
“Also recorded” adds a separate entry of the source. Structures can show the parent of a compound that is named as a salt.

System: mutant mice (Advillin^Cre; Mecp2^f/y, Advillin^Cre; Shank3^f/f, Advillin^Cre; Gabrb3^f/+, Advillin^Cre; Gabrb3^f/f)
Experiment: Tactile prepulse inhibition (PPI) assay and response to air puff alone, acute Compound 5
Assay type: in vivo, mouse
Conditions: 2 mg/kg i.p.
Description: FIG. 1 is a graph showing percent inhibition of an acoustic startle response (PPI) to a 125-dB noise (pulse), when the startle noise was preceded by a light air puff (prepulse, 0.9 PSI, 50 ms) at an interstimulus interval of 250 ms. Values are expressed as percent of control littermates' performance. Experiments were performed in mutant mice (Advillin^Cre; Mecp2^f/y, Advillin^Cre; Shank3^f/f) and control littermates, 30 minutes after an intraperitoneal injection of either saline (vehicle) the peripherally restricted Compound 5 (2 mg/kg). Two-way ANOVA, with post-hoc Holm-Sidak's test, *, p<0.05, when comparing mutants to control within same treatment; I, p<0.05, or p<0.10, when comparing the same genotype across different treatments.
FIG. 2 is a graph showing response to a light air puff stimulus alone (0.9 PSI, 50 ms). Responses are expressed as a percent of startle response to a 125-B noise. Experiments were performed in mutant mice (Advillin^Cre; Mecp2^f/y, Advillin^Cre; Shank3^f/f) and control littermates, 30 minutes after an intraperitoneal injection of either saline (vehicle) the peripherally restricted Compound 5 (2 mg/kg). Two-way ANOVA, with post-hoc Holm-Sidak's test, *, p<0.05, when comparing mutants to control within same treatment; I, p<0.05, when comparing the same genotype across different treatments.
FIG. 3 is a graph showing magnitude of startle response to a 125-dB noise. Experiments were performed in mutant mice (Advillin^Cre; Mecp2^f/y, Advillin^Cre; Shank3^f/f) and control littermates, 30 minutes after an intraperitoneal injection of either saline (vehicle) the peripherally restricted Compound 5 (2 mg/kg).
FIG. 4 is a graph showing the percent inhibition of an acoustic startle response (PPI) to a 125-dB noise (pulse), when the startle noise was preceded by a light air puff (prepulse, 0.9 PSI, 50 ms) at an interstimulus interval of 250 ms. Values were expressed as percent of control littermates' performance. Experiments were performed in mutant mice (Advillin^Cre; Mecp2^f/y, Advillin^Cre; Shank3^f/f, Advillin^Cre; Gabrb^3f/+, Advillin^Cre; Gabrb3^f/f) and control littermates, 30 minutes after an intraperitoneal injection of either saline (vehicle) or Compound 5 at 2 mg/kg. […] Two-way ANOVA, with post-hoc Holm-Sidak's test, *, p<0.05, when comparing mutants to control within same treatment; t, p<0.05, or #, p<0.10, when comparing the same genotype across different treatments.
FIG. 5 is a graph showing the response to a light air puff stimulus alone (0.9 PSI, 50 ms). Responses were expressed as a percent of startle response to a 125-B noise. Experiments were performed in mutant mice (Advillin^Cre; Mecp2^f/y, Advillin^Cre; Shank3^f/f, Advillin^Cre; Gabrb3^f/+, Advillin^Cre; Gabrb3^f/f) and control littermates, 30 minutes after an intraperitoneal injection of either saline (vehicle) or Compound 5 at 2 mg/kg. […] Two-way ANOVA, with post-hoc Holm-Sidak's test, *, p<0.05, when comparing mutants to control within same treatment; f, p<0.05, when comparing the same genotype across different treatments. […]
FIGS. 1 and 4 show the percent inhibition of an acoustic startle response (PPI) to a 125-dB noise (pulse), when the startle noise was preceded by a light aft puff (prepulse, 0.9 PSI, 50 ms) at an interstimulus interval of 250 ms. Values were expressed as percent of control littermates' performance. […]

[1] = Advillin^Cre, Mecp2^f/y, Shank3^f/f, Gabrb3^f/+ mice, 30 min, vs saline

**Q.** Which results are given for `NC1C=C(C(=O)O)CCC1` (centres unmarked) [Compound 5, 3-aminocyclohex-1-enecarboxylic acid hydrochloride]?
**A.** tactile (hairy skin) sensitivity in mice with complete loss of GABA-A receptors on peripheral somatosensory neurons (Advillin^Cre, Gabrb3^f/f mice, 30 min, hydrochloride, 2 mg/kg): do not show a reduction in tactile sensitivity; also recorded: did not show any improvements in hairy skin sensitivity; responsivity to a light air puff stimulus alone (0.9 PSI, 50 ms) [1]: reduced responsivity to an air puff stimulus; tactile PPI performance [1]: reduced tactile PPI performance; hairy skin hypersensitivity (tactile PPI assay and response to air puff stimulus alone) (Mecp2, Shank3 and Gabrb3 heterozygous conditional mutant mice, 30 minutes after injection, hydrochloride, 2 mg/kg): reduces hairy skin over-reactivity; also recorded: significantly reduced hairy skin hypersensitivity; also recorded: reduces hairy skin hypersensitivity; motor behaviors or sedation, average startle amplitude elicited by a 125-dB noise (mutant mice and control littermates, 30 min, hydrochloride, 2 mg/kg): did not have negative effects on motor behaviors or sedation; also recorded: no significant differences between any genotypes or treatment groups
